{
  "source": "patent US20150359798A1",
  "about": "“PIPERAZINYL DERIVATIVE REDUCES HIGH-FAT DIET-INDUCED ACCUMULATION OF FAT IN THE LIVERS, […]” (priority 2011, published 2015)",
  "key": {"HSL": {"system": "HSL", "assay": "IHC staining of HSL in epididymal fat pads", "type": "in vivo, mice", "settings": "protection, 2.5 mg/kg/day", "protocol": "For IHC of MMP-9/TNFα, HSL/p-HSL/ATGL and eNOS/IL-10, antigen retrieval of de-paraffinated sections was performed in Dako target retrieval solution, pH 9.0, in a vegetable steamer followed by the quenching of endogenous peroxidase activity with 3.0% H2O2 in methanol. Sections were then incubated with specific primary antibodies overnight at 4° C. in a humidified chamber. The antibodies used included rabbit polyclonal anti-eNOS (1:50 dilution) (Abcam, Cambridge, UK) or rabbit monoclonal anti-cleaved caspase-3 (1:50 dilution) (Cell Signaling, USA). The sections were then examined using a DAKO REAL EnVision™ Detection System kit (DAKO, Carpinteria, Calif.) and counterstained with hematoxylin. Images were obtained through a Nikon Eclipse TE200-S microscope."}, "eNOS": {"system": "eNOS", "assay": "eNOS expression in HepG2 cells", "type": "cell-based", "protocol": "(§1) HepG2 cells were treated with various concentrations of drugs for 24 hours. Reactions were terminated by washing twice with cold PBS, and the cells were then harvested, Proteins in the whole-cell lysate were homogenized in an ice-cold lysis buffer and a protease inhibitor (Sigma-Aldrich, St. Louis, Mo., U.S.A.). The homogenate was centrifuged at 90, 000 g for 15 minutes at 4° C., and supernatant was recovered as the total cellular protein. Cytosolic and membrane fractions of HepG2 cells were prepared using a. CNM (Cytosol Nuclear Membrane) compartment protein extraction kit (BioChain Institute Inc., Hayward, Calif., U.S.A.) according to the manufacturer's instructions. All of the fractionated protein solutions were stored at −80° C. until analysis. To measure the expression levels of proteins by drugs, the total cell protein was extracted after incubation with treatments for 24 hours and then Western blotting analysis was performed as described previously."}, "SR-B1": {"system": "SR-B1", "assay": "HFD-induced hepatic SR-B1 expression (14-week experiment)", "type": "in vivo, mice", "settings": "drinking KMUP-1", "protocol": "In the 14-week experiment, mice were fed a HFD from week 1 to week 14. During the 3 month experiments, KMUP-1 HCl (2.5 mg) was added to 200 ml tap water and) and drink for 14 weeks or for the last 6 weeks on mice or obese mice fed HFD, separately. 5 mice had free access to drinking water from week 1 to week 14 (protective group) or from week 8 to week 14 (treatment group). Tap water was used to normalize mineral nutrition (Scheme A).\nFor the expression of SR-B1, HMGR, PPARγ and ROCK isolated liver tissues were cut into small chips and placed into an extraction buffer (Tris 10 mM, pH 7.0, NaCl 140 mM, PMSF 2 mM, DTT 5 mM, NP-40 0.5%, pepstatin A 0.05 mM and leupeptin 0.2 mM) for hepatic protein extraction, and centrifuged at 20,000 g for 30 minutes. The obtained protein extract was boiled to a ratio of 4:1 with a sample buffer (Tris 100 mM, pH 6.8, glycerol 20%, SDS 4% and bromophenol blue 0.2%). Electrophoresis was performed using 10% SDS-polyacrylamide gel (1 hour, 100 V, 40 mA, 20 μg protein per lane).\nSeparated proteins, after 3 repeated centrifugations to discard up-layer tissue lipid inpurity, were transferred to PVDF membranes treated with 5% fat-free milk powder to block the nonspecific IgGs (90 minutes, 100 V) and incubated for 1 hour with specific protein antibody. The blot was then incubated with anti-mouse or anti-goat IgG linked to alkaline phosphatase (1:1000) for 1 hour."}, "ROCK II": {"system": "ROCK II", "assay": "ROCK II expression in HepG2 cells", "type": "cell-based", "protocol": "as §1, with “-80°” for “−80°”"}, "p-HSL": {"system": "p-HSL", "assay": "Table 3 p-HSL (% of control)", "type": "cell-based", "settings": "control group = 100 (%)"}, "LDLR": {"system": "LDLR", "assay": "Fluorescence staining of LDLRs in HepG2 cells", "type": "cell-based", "protocol": "HepG2 cells were used to determine the cellular protein expression of LDLRs in the presence of exogenous LDL (500 μg/mL) Bodipy-493/503 ([…]) overnight at 4° C., followed by merger of obtained BODIPY- and LDL-images to analyze the location of LDLRs. All images were collected and analyzed by scanning with Nikon Eclipse TE200-S microscope (Tokyo, Japan)."}},
  "data": [
    {"smiles": "Cn1c(=O)c2c(ncn2CCN2CCN(c3ccccc3Cl)CC2)n(C)c1=O", "note": "[KMUP-1, 7-[2-[4-(2-chlorophenyl)piperazinyl]ethyl]-1,3-dimethyl xanthine]", "values": [
      {"measurement": "IHC staining of HSL in epididymal fat pads", "setting": "HSL", "value": "increased"},
      {"measurement": "expression of eNOS", "setting": "eNOS", "value": "concentration-dependently increased"},
      {"measurement": "HFD-induced hepatic SR-B1 expression", "setting": "SR-B1", "value": "inhibit"},
      {"measurement": "ROCK II protein expression", "setting": "ROCK II; HepG2, 10^−9-10^−5 M", "value": "concentration-dependently reduced"},
      {"measurement": "Rp-8-pCPT-cGMPS-increased ROCK II expression", "setting": "ROCK II; HepG2, combination with KMUP-1 10 μM", "value": "inhibited"},
      {"measurement": "GGPP- and FPP-increased RhoA/ROCK II expression", "setting": "ROCK II; HepG2, in the presence of exogenous GGPP and FPP, 10^−9-10^−5M", "value": "attenuated"},
      {"measurement": "p-HSL", "setting": "p-HSL; 0.1 μM", "value": "120.7 ± 15.3", "unit": "%"},
      {"measurement": "p-HSL", "setting": "p-HSL; 1.0 μM", "value": "138.6 ± 14.7", "unit": "%"},
      {"measurement": "p-HSL", "setting": "p-HSL; 10 μM", "value": "144.6 ± 12.3", "unit": "%"},
      {"measurement": "LDLR (green fluorescence) expression", "setting": "LDLR; HepG2, 24 hours, KMUP-1 10^−6, 10^−5, 10^−4 M, simvastatin 10^−5 M", "value": "increased"},
      {"measurement": "LDLR fluorescence at high concentration", "setting": "LDLR; HepG2, concentrations >10^−4 M, near the viability range", "value": "decline in fluoresence"}
    ]}
  ]
}
